The values that follow come from PMC12291464, “Modifying Antifungal Peptides as Safe Food Preservatives” (Journal of Agricultural and Food Chemistry, 2025).

The test system of one data set is E. coli. The method, then:
(§1) A1163 was grown on potato dextrose agar (PDA) medium at 37 °C for 5 days, and then the conidia were scraped and suspended in PBS with 0.025% (v/v) Tween 20, counted using a hemocytometer, and kept at 4 °C. isolated from peanuts and Pe21 (both kindly provided by Dr. Edward Sionov, ARO, Israel) were grown on PDA medium at 25 °C for 5 days, and then the conidia were scraped and suspended in PBS with 0.025% Tween 20 and kept at 4 °C. RP and methicillin-resistant (MRSA) were grown on LB agar plates, and individual colonies were picked and grown in Mueller–Hinton (MH) broth overnight at 37 °C. was grown on PDA medium at 30 °C, and individual colonies were picked and grown in yeast extract peptone dextrose (YPD) media overnight at 30 °C. All fungal and bacteria strains were maintained at −80 °C in 50% (v/v) glycerol stock.
(§2) For filamentous fungi strains, serial dilutions of 100 μL ranged from 100 to 0.78 μM for each peptide in a 96 well plate using RPMI1640 with 165 μM MOPS. A total of 80 μL of inoculum was suspended with a conidia load of 5 × 10^3 CFU/mL (final density of 2 × 10^3 CFU/mL), and 20 μL of resazurin was diluted in RPMI1640 solution of 0.02% [final concentration of 0.0002% (w/v)]. In the control, 100 μL of treatment was replaced by the same volume with medium, while the negative control was 180 μL of the medium and 20 μL of resazurin solution. Plates were incubated at 37 °C for and 25 °C for and for 24 h. The results were quantified by measuring absorbance at 570 nm with a microplate reader (Tecan). The mean absorbance values were used in subsequent calculations. The growth of resazurin reduction and growth inhibition was calculated using the following normalization: % growth=100−% reduction=abs of test agent−abs of untreated control/abs of reduced resazurin−abs of untreated control The MIC was defined as the lowest concentration of the peptide that inhibited fungal growth by 90%, allowing for only 10% of the normal growth. For bacterial and yeast strains studies, serial dilutions of 100 μL ranged from 100 to 0.78 μM for each peptide in a 96 well plate using MH media for bacteria and YPD for yeast. A total of 100 μL of the microbe in suitable media (5 × 10^5 CFU/mL) was inoculated in each well. In the untreated well (e.g., control), 100 μL of treatment was replaced by the same volume with medium, while in the negative control, media were only without microbes and peptides. After 24 h of incubation at 37 °C for bacteria and 30 °C for yeast, plates were read at 595 nm and MIC was defined as the lowest concentration of peptide that reduced the growth of the microbe to 10% growth.

For another data set, the system named is A. Niger. As to conditions: 24 h. The method, then: as §1, §2
Another data set relates to A. fumigatus. As to conditions: 24 h. The method, then:
as §1, §2

The test system of another data set is MRSA. The method, then:
as §1, §2

Another data set relates to P. expansum. As to conditions: 24 h. The method, then: as §1, §2
The target of a further data set is chymotrypsin (Bos taurus, UniProt P00766). Nature of the data set: Digestion examination of the peptides by chymotrypsin. Here is the method:
Peptides were dissolved in 1 mL of 100 μM NH4HCO3 to a final concentration of 4 mM, followed by the addition of 1 μL chymotrypsin (1 mg/mL), and were incubated at 37 °C and 150 rpm. At each time point, 75 μL of the solution was transferred to 90 °C for inactivation of the enzyme. After the peptides were frozen in liquid nitrogen and lyophilized, they were dissolved in DMSO and were analyzed in HPLC using Analytic Phenomenex Luna C18 (5 μm, 4.6 × 250 mm) with standard RP-HPLC conditions. The area under curve (AUC) was calculated at each time point and normalized to time = 0.
4 Peptide’s secondary structure and digestibility. (A) CD spectra of the peptides (50 μM) in DDW was measured using a J-1100 spectropolarimeter (Jasco), with the following parameters: wavelength range of 190–260 nm, bandwidth of 1 nm, data pitch of 0.1 nm, and three accumulations. A baseline spectrum was recorded using a 0.1 cm quartz cuvette filled with DDW and subtracted from the peptide spectrum to obtain the corrected CD spectrum. […] The area under the curve (AUC) was calculated at each time point and normalized to t = 0. The y axis ranges from 100%, meaning not digested at all, to 0%, meaning fully digested.

For the next data set, the system named is HEK cells. The data set is described as follows: Toxicity assay on the human cell line (MTT). As to conditions: 100 to 0.78 μM peptide, 24 h, read at 595 nm, normalized to untreated cells; 3 biological repeats in triplicates. Format: cell-based. Here is the method:
HEK cells were grown at 37 °C with 5% CO2 in Deulbecco’s modifield Eagle’s medium (DMEM, Sigma) with 2 mM L-glutamine, 1% (v/v) penicillin and streptomycin (Penstrep), and 20% (v/v) fetal bovine serum. The day before the experiment, cells were detached by gentle scraping, counted with a hemocytometer to a concentration of 10^6 cells/mL, and seeded into a 96-well microplate (Nunc, Thermo Scientific). The following day, serial dilutions from 100 to 0.78 μM for each peptide were introduced to the cells with DMEM lacking phenol red for 24 h. Later, 50 μL of 3-(4,5-dimethylthiazol-2-yl)-2,5-diphenyltetrazolium bromide (MTT, 0.5 mg/mL) was added to the wells for 2 h of incubation. At the end, 100 μL of DMSO was added for 30 min at 37 °C and 200 rpm, and the plate was read at 595 nm and normalized to the untreated cells.
Peptide Concentration [µM] Peptide Concentration [µM]
Supplementary 3. Cytotoxicity examination. HEK cells were cultured in DMEM with L-glutamine, PenStrep, and fetal bovine serum at 37°C and 5% CO2. The day before the experiment, cells were detached, counted (10^6 cells/ml), and seeded into a 96-well plate. […] Cell viability was assessed using the MTT assay; after adding 50µl of MTT and incubating for 2 hours, 100µl DMSO was added for 30minutes at 37 °C, 200rpm. Next, absorbance was measured at 595nm and normalized to untreated controls. […]

The mark [1] stands for this setting: MH media, 5 × 10^5 CFU/mL, 24 h at 37 °C, read at 595 nm, MIC = growth reduced to 10%, average ± SE, 3 biological repeats in triplicates.
Setting [2] is: RPMI1640 with MOPS, resazurin, absorbance 570 nm, MIC = lowest concentration inhibiting growth by 90%, average ± SE, 3 biological repeats in triplicates.

Values after ≈ are worked out from the molar mass of the structure shown. “Also recorded” adds a separate entry of the source. Where two headings read alike, the source gives them in different places. Residues, ends and D or L forms follow the SMILES beside them.

With `CC[C@H](C)[C@H](NC(=O)[C@H](CCCCN)NC(=O)[C@H](CCCCN)NC(=O)[C@H](Cc1ccccc1)NC(=O)[C@H](CC(C)C)NC(=O)[C@H](CCCCN)NC(=O)[C@H](CCCCN)NC(=O)[C@H](CC(C)C)NC(=O)[C@H](Cc1ccc(O)cc1)NC(=O)[C@H](CCCCN)NC(=O)[C@H](CC(C)C)NC(=O)[C@@H](NC(=O)[C@H](CCCCN)NC(=O)[C@H](CCCCN)NC(=O)[C@H](Cc1ccccc1)NC(=O)[C@H](CC(C)C)NC(=O)[C@H](CCCCN)NC(=O)[C@@H](N)CCCCN)[C@@H](C)CC)C(=O)N[C@@H](CC(C)C)C(=O)N[C@@H](CCCCN)C(=O)N[C@@H](Cc1ccc(O)cc1)C(=O)N[C@@H](CC(C)C)C(N)=O` [BP100 Double] (H-KKLFKKILKYLKKLFKKILKYL-NH2), the “MIC Values, E. coli” value with E. coli (setting [1]) was more than 200 µM. Also, in the data set with A. Niger (setting [2]), the “MIC Values, A. Niger” value came to 5 ± 1 µM (≈ 14.1 µg/mL). In the data set on A. fumigatus (setting [2]), the “MIC Values, A. fumigatus” value stood at 3 ± 0.5 µM (≈ 8.47 µg/mL). Further, the “MIC Values, MRSA” value in the data set on MRSA (setting [1]) is more than 200 µM. The “MIC Values, P. expansum” value in the data set on P. expansum (setting [2]) came to 2 ± 0 µM (≈ 5.65 µg/mL). In addition, at chymotrypsin, the digestion by chymotrypsin entry was “less prone for digestions; also recorded: not digested”.
Consider `CC[C@H](C)[C@H](NC(=O)[C@H](CCCCN)NC(=O)[C@H](CCCCN)NC(=O)[C@H](Cc1ccccc1)NC(=O)[C@H](CC(C)C)NC(=O)[C@H](CCCCN)NC(=O)[C@@H](N)Cc1c[nH]c2ccccc12)C(=O)N[C@@H](CC(C)C)C(=O)N[C@@H](CCCCN)C(=O)N[C@@H](Cc1ccc(O)cc1)C(=O)N[C@@H](CC(C)C)C(N)=O` [BP100 K1W], for which the “MIC Values, E. coli” value with E. coli (setting [1]) worked out at 2 ± 0 µM (≈ 2.96 µg/mL). The “MIC Values, A. Niger” value against A. Niger (setting [2]) amounted to 10 ± 2 µM (≈ 14.8 µg/mL). The “MIC Values, A. fumigatus” value in the data set with A. fumigatus (setting [2]) turned out to be 8 ± 2 µM (≈ 11.8 µg/mL). In the data set with MRSA (setting [1]), the “MIC Values, MRSA” value amounted to 3 ± 0 µM (≈ 4.44 µg/mL). The “MIC Values, P. expansum” value against P. expansum (setting [2]) turned out to be 6 ± 0 µM (≈ 8.87 µg/mL). Also, in the data set with HEK cells, the “cytotoxicity against HEK mammalian cells (MTT assay)” value is “low to no cytotoxicity”. Besides, the digestion by chymotrypsin entry at chymotrypsin is on record as “fully degraded within a short time frame”.
Consider `CC[C@H](C)[C@H](NC(=O)[C@H](CCCCN)NC(=O)[C@H](CCCCN)NC(=O)[C@H](Cc1ccccc1)NC(=O)[C@H](CC(C)C)NC(=O)[C@H](CCCCN)NC(=O)[C@H](CCCCN)NC(=O)[C@H](CC(C)C)NC(=O)[C@H](Cc1ccc(O)cc1)NC(=O)[C@H](CCCCN)NC(=O)[C@H](CC(C)C)NC(=O)[C@@H](NC(=O)[C@H](CCCCN)NC(=O)[C@H](CCCCN)NC(=O)[C@H](Cc1ccccc1)NC(=O)[C@H](CC(C)C)NC(=O)[C@H](CCCCN)NC(=O)[C@H](CCCCN)NC(=O)[C@H](CC(C)C)NC(=O)[C@H](Cc1ccc(O)cc1)NC(=O)[C@H](CCCCN)NC(=O)[C@H](CC(C)C)NC(=O)[C@@H](NC(=O)[C@H](CCCCN)NC(=O)[C@H](CCCCN)NC(=O)[C@H](Cc1ccccc1)NC(=O)[C@H](CC(C)C)NC(=O)[C@H](CCCCN)NC(=O)[C@@H](N)CCCCN)[C@@H](C)CC)[C@@H](C)CC)C(=O)N[C@@H](CC(C)C)C(=O)N[C@@H](CCCCN)C(=O)N[C@@H](Cc1ccc(O)cc1)C(=O)N[C@@H](CC(C)C)C(N)=O` [BP100 Triple] (H-KKLFKKILKYLKKLFKKILKYLKKLFKKILKYL-NH2), for which, in the data set on E. coli (setting [1]), the “MIC Values, E. coli” value is more than 200 µM. Besides, the “MIC Values, A. Niger” value in the data set with A. Niger (setting [2]) was more than 200 µM. Moreover, the “MIC Values, A. fumigatus” value against A. fumigatus (setting [2]) was determined as 42 ± 8.3 µM (≈ 178 µg/mL). Moreover, the “MIC Values, MRSA” value in the data set with MRSA (setting [1]) was more than 200 µM. Besides, the “MIC Values, P. expansum” value in the data set on P. expansum (setting [2]) stood at 83 ± 17 µM (≈ 351 µg/mL). For the same compound, the digestion by chymotrypsin result at chymotrypsin was “less prone for digestions; also recorded: not digested”.
Take `C[C@H](N)C(=O)N[C@@H](CCCCN)C(=O)N[C@@H](CCCNC(=N)N)C(=O)N[C@@H](Cc1c[nH]cn1)C(=O)N[C@@H](Cc1c[nH]cn1)C(=O)NCC(=O)N[C@@H](Cc1ccc(O)cc1)C(=O)N[C@@H](CCCCN)C(=O)N[C@@H](CCCNC(=N)N)C(=O)N[C@@H](CCCCN)C(=O)N[C@@H](Cc1ccccc1)C(=O)N[C@@H](Cc1c[nH]cn1)C(=O)N[C@@H](C)C(=O)N[C@@H](CCCCN)C(=O)N[C@@H](CCCNC(=N)N)C(=O)N[C@@H](Cc1c[nH]cn1)C(=O)N[C@@H](Cc1c[nH]cn1)C(=O)NCC(=O)N[C@@H](Cc1ccc(O)cc1)C(=O)N[C@@H](CCCCN)C(=O)N[C@@H](CCCNC(=N)N)C(=O)N[C@@H](CCCCN)C(=O)N[C@@H](Cc1ccccc1)C(=O)N[C@@H](Cc1c[nH]cn1)C(=O)N[C@@H](C)C(=O)N[C@@H](CCCCN)C(=O)N[C@@H](CCCNC(=N)N)C(=O)N[C@@H](Cc1c[nH]cn1)C(=O)N[C@@H](Cc1c[nH]cn1)C(=O)NCC(=O)N[C@@H](Cc1ccc(O)cc1)C(=O)N[C@@H](CCCCN)C(=O)N[C@@H](CCCNC(=N)N)C(=O)N[C@@H](CCCCN)C(=O)N[C@@H](Cc1ccccc1)C(=O)N[C@@H](Cc1c[nH]cn1)C(N)=O` [P-113 Triple] (H-AKRHHGYKRKFHAKRHHGYKRKFHAKRHHGYKRKFH-NH2): in the data set on E. coli (24 h), the “MIC Values, E. coli” value worked out at 42 ± 14 µM (≈ 196 µg/mL). In the data set on A. Niger, the “MIC Values, A. Niger” value was 16 ± 4 µM (≈ 74.5 µg/mL). Moreover, in the data set on A. fumigatus, the “MIC Values, A. fumigatus” value was 5 ± 2 µM (≈ 23.3 µg/mL). The “MIC Values, MRSA” value against MRSA (24 h) amounted to 25 ± 0 µM (≈ 116 µg/mL). Further, the “MIC Values, P. expansum” value against P. expansum was 5 ± 2 µM (≈ 23.3 µg/mL). For the same compound, in the data set on HEK cells, the “cytotoxicity against HEK mammalian cells (MTT assay)” value is reported as “low to no cytotoxicity”. Besides, at chymotrypsin (peptide 4 mM in 100 μM NH4HCO3, 1 μL chymotrypsin (1 mg/mL), 37 °C, 150 rpm, analytical RP-HPLC C18, AUC normalized to t = 0), the digestion by chymotrypsin entry is “fully degraded within a short time frame”.
